Results on two compounds are retold here after US20100021941A1, “METHODS OF IDENTIFYING MODULATORS OF UBIQUITIN LIGASES” (PROGENRA, INCORPORATED, priority 2008, published 2010).

Test [1] concerns the target T1, E1, E2 and E3 coupled enzyme reaction (GST-E1/His6-UbcH5c/6× His-SUMO-CARP2 ligase) (Homo sapiens, UniProt P22314+P61077+Q8WZ73).
T1 construct: fused on or other part: GST on E1; His6 on UbcH5c; 6x His-SUMO on CARP2; The plate is coated with 6x His-SUMO-UBA2 (yeast Rad23 residues 351-398) as capture reagent
Description: E3 ligase assay (autoubiquitylation) on 6× His-SUMO-UBA2 coated plates, anti-ubiquitin antibody/FITC fluorescence detection. Format: biochemical. To be noted: enzymes pre-incubated with compound 30 minutes at room temperature; reaction 60 minutes at 37° C.; 500 nM 6× His SUMO-CARP2; triplicate; FIG. 6A. How it is done: Medium binding plates (Costar, USA) were coated with 100 μl of 0.1 mg/ml solution of 6× His-SUMO-UBA2 overnight at 4° C. The plates were blocked with 200 μl of 3% BSA in 1× phosphate buffered saline (1× PBS, pH 7.4) for 3 hours at 4° C. and washed with 1× PBS three times. E3 reactions were carried out as follows. For IC50 experiments, various concentrations of NEM, iodoacetamide, and ubistatin A were added to individual wells in triplicate. Controls contained 5 μl of 10% DMSO or 50 mM NEM. The compounds were supplemented with 20 μl of enzyme mixture containing GST-E1 (10 nM)/His6-UbcH5c (100 nM), 6× His SUMO-CARP2 (500 nM) prepared in assay buffer (50 mM Tris-HCl, pH8.0, 2 mM MgCl2, 0.1 mM DTT) and incubated at room temperature for 30 minutes. A pFastBac-GST-E1 vector was expressed and purified from insect cells according to published methods. Beaudenon and Huibregtse, Methods Enzymol, 398: 3-8 9 (2005). A PCR product encoding UbcH5c was generated using the primers 5′-[…]-3′ (SEQ ID NO:24) and 5′-[…]-3′ (SEQ ID NO:25) and human UbcH5c cDNA as the template. The PCR fragment was digested with BsaI and BamHI, and then ligated into pET24D (Novagen) generating 6× His-UbcH5c. […] Plates were washed six times with 1× PBS and readings were taken using the fluorescence plate reader with excitation and emission wavelengths of 485 nm and 535 nm, respectively.

The subject of test [2] is E3 ubiquitylation reaction containing E1, E2 (UbcH5c) and E3. Put plainly: E3 ligase inhibition assay using 5′-IAF-UBA1 detection and anti-ubiquitin immunoblot. It is filed as biochemical, human. To be noted: pre-incubated with various concentrations for 30 minutes at room temperature before adding ubiquitin and ATP; FIGS. 9A-D. How it is done: E3 ligase reactions contained 10 nM GST-Praja1, 500 nM 6× His-SUMO-CARP2 or 500 nM 6× His-SUMO-MuRF1 as E3s, 50 nM E1, 150 nM UbcH5c (E2), 500 ng Ubiquitin, 2 mM ATP, 50 mM Tris-HCl pH8.0, 5 mM MgCl2, 0.1 mM DTT. For measuring SCF^Atrogin-1 E3 ligase activity, the reaction was assembled essentially as described above except that the E3 ligase contained 6× His-SUMO-Atrogin-1, Cullin-1 (“Cul1”), Roc-1 (“Rbx-1 ”) and 6× His-Skp1 (250 nM each). In order to obtain large amounts of the Cul1-Rbx1 complex for the SCF complex, we used a procedure to overexpress the Cul1-Rbx1 complex in E. coli. Zheng, et al., Nature, 416(6882):703-9 (2002). The Cull gene was split into two halves (residues 1-410 and residues 411-776) and co-expressed with GST-tagged Rbx1 as three different polypeptide chains. A PCR product encoding Skp1 was generated using the primers 5′-[…]-3′ (SEQ ID NO:28) and 5′-[…]-3′ (SEQ ID NO:29) and human Skp1 cDNA as the template. […]
For inhibition assays, reactions containing E1, E2, and E3 were pre-incubated with various concentrations of NEM and ubistatin A for 30 minutes at room temperature before initiating the reaction by adding ubiquitin and ATP. […] The wells were washed with 1× PBS and readings were taken using a fluorescence plate reader with excitation and emission wavelengths of 485 nm and 535nm, respectively. […]
Background: A western blot detects proteins with antibodies after separation by electrophoresis.

T1 sequence (P22314 2-1058): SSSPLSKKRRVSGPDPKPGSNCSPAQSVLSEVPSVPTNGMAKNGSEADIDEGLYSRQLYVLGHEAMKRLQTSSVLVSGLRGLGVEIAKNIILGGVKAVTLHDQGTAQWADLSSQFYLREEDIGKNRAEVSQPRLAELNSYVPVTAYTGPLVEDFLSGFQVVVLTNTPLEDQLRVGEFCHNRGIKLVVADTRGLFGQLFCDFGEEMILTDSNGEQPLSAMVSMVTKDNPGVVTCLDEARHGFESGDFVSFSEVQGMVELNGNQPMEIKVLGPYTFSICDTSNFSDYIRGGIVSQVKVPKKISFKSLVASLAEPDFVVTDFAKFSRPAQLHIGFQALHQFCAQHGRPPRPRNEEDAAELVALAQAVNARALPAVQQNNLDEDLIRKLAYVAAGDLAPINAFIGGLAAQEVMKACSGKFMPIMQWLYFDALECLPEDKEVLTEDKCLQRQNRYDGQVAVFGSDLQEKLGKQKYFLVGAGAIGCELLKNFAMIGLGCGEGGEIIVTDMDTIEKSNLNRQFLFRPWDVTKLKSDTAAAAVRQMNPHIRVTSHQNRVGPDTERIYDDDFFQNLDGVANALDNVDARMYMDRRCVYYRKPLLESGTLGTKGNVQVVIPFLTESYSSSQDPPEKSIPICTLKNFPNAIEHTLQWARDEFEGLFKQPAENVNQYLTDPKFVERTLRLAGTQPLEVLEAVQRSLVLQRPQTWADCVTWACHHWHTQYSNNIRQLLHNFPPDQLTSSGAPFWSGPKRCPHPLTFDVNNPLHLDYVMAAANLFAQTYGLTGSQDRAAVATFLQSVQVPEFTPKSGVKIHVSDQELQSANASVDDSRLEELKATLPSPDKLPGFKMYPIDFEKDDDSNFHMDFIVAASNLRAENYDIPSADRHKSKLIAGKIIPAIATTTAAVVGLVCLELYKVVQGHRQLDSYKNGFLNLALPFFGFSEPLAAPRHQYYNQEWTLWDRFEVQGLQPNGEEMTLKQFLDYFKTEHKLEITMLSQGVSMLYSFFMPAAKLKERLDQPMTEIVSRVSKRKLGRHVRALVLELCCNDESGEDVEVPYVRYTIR
T1 sequence (P61077 whole entry, the tested form may be a part): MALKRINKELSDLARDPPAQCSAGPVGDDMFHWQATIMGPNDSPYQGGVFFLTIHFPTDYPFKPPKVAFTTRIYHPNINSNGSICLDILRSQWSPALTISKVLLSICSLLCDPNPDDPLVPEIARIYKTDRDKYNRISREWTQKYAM
T1 sequence (Q8WZ73 whole entry, the tested form may be a part): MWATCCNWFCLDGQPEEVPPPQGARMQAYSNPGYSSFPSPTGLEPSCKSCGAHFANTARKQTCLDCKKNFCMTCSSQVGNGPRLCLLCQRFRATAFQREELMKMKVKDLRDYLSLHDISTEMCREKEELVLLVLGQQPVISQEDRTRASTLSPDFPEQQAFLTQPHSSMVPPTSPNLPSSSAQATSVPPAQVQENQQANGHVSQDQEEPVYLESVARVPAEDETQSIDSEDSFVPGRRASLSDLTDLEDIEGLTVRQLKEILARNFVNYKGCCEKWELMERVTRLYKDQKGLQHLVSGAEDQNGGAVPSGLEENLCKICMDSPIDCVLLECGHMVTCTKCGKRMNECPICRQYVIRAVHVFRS

For the compound `CCN1C(=O)C=CC1=O` [NEM], the IC50 (commonly the midpoint of a concentration-inhibition curve) in test [1] was 34.2 µM. Moreover, the “inhibition of the E3 ubiquitylation assay” value in test [2] is recorded as “inhibited”.
Consider `O=C(Nc1ccc(/C=C/c2ccc(NC(=O)c3cc(S(=O)(=O)O)c4cccnc4c3O)cc2S(=O)(=O)O)c(S(=O)(=O)O)c1)c1cc(S(=O)(=O)O)c2cccnc2c1O` [ubistatinA], for which the IC50 in test [1] turned out to be 0.421 µM. In addition, the “inhibition of the E3 ubiquitylation assay” value in test [2] is on record as “inhibited”.
